# Test results reported in patent US11584756B2, “Heterocyclic compounds as BET inhibitors” (NUVATION BIO INC., priority 2019, dated 2023).
# Read-outs that look alike come from different tables or passages of the source.
# Tests used:
# BRD4-1 = BRD4-1 (Homo sapiens (Human), UniProt O60885); test: Bromodomain and Extraterminal Domain (BET) binding assay, BRD4-1; details: histone H4 peptide (1-21) K5/8/12/16Ac-biotin ligand; 20 nM protein, 20 nM ligand
# Method: (§1) The bromodomain binding assays were performed by Reaction Biology Corp., Malvern, Pa., USA (www.reactionbiology.com). The BET binding assays were conducted in 384 well microplates in assay buffer (50 mM HEPES-HCl, pH 7.5, 100 mM NaCl, 1 mg/ml BSA, 0.05% CHAPS, and 0.5% DMSO) with compounds added as DMSO stocks at a single concentration or with 10-point dose response titrations. BET protein or assay buffer were delivered to the appropriate wells of the microplate. Test compound was then delivered by acoustic technology via a Labcyte Echo550 liquid handler. The microplate was centrifuged for 5 min and pre-incubated for 30 min at RT with gentle shaking. The ligand (histone H4 peptide (1-21) K5/8/12/16Ac-biotin) was delivered and the microplate was again centrifuged for 5 min and allowed to incubate for 30 min at RT with gentle shaking. Donor beads were then added in the absence of light and the microplate was centrifuged and gently shaken. After 5 min, acceptor beads were added in the absence of light and the microplate was centrifuged and gently shaken in the dark for 60 min. The microplate was read using a Perkin Elmer EnSpire Alpha plate reader (λ Ex/λ Em=680/520-620 nm). Percent inhibition was calculated relative to positive and negative controls on a per plate basis. For titration experiments, IC50 values were determined by fitting the percent inhibition versus compound concentration.
# BRD4-2 = BRD4-2 (Homo sapiens (Human), UniProt O60885); test: Bromodomain and Extraterminal Domain (BET) binding assay, BRD4-2; details: histone H4 peptide (1-21) K5/8/12/16Ac-biotin ligand; 130 nM protein, 70 nM ligand
# Method: as §1
# [1] = test system: MV-4-11 human acute myeloid leukemia cell line; test: Cell viability assay in MV-4-11 cells (Cell Titer-Glo); assay type: cell-based; details: MV4-11, 72 hrs incubation
# Method: The effects of test compounds were studied in a cell viability assay in the MV-4-11 human acute myeloid leukemia cell line. The cells were harvested during the logarithmic growth period and counted. Cells were seeded at a count of 15000 cells per well/100 μl. After seeding, cells were incubated at 37° C. 5% CO2 for 1 hr. Cells were treated with test compounds at 8 concentrations within a desired concentration range (e.g. 5 nM-10 μM) for generation of dose response curves by preparing serial dilutions of the test compound in DMSO which were further diluted with culture medium and then added to each well. The plate was further incubated for another 72 hrs in a humidified incubator at 37° C. and 5% CO2. The assay was terminated by addition of Cell Titer-Glo reagent (Promega, Madison, Wis.) at ¼ the volume of total medium per well. Contents were mixed, the plate was incubated for 10 min at room temperature and luminescence was measured. Cell viability data were plotted using GraphPad Prism (GraphPad Software, Inc., San Diego, Calif.). In addition, a nonlinear regression model with a sigmoidal dose response and variable slope within GraphPad Prism was used to calculate the IC50 value of individual test compounds.
# [2] = test system: IEC-6 rat intestinal epithelial cell line; test: Cell viability assay in IEC-6 cells (resazurin), potential toxicity to non-cancerous cells; assay type: cell-based
# Method: The effects of test compounds were also studied in the IEC-6 rat intestinal epithelial cell line to assess potential toxicity to non-cancerous cells. The cells were harvested during the logarithmic growth period and counted. In Protocol A, cells were seeded at a count of 3000 cells per well/100 μl in a 96-well plate. After seeding, cells were incubated at 37° C. 5% CO2 for 24 hr. Cells were treated with test compounds at 8 concentrations within a desired concentration range (e.g. 5 nM-10 μM) for generation of dose response curves by preparing serial dilutions of the test compound in DMSO which were further diluted with culture medium and then added to each well. The plate was further incubated for another 96 hrs in humidified incubator at 37° C. and 5% CO2. The assay was terminated by addition of resazurin (#R7017, Sigma). The plate was incubated for 4 hr at 37° C. 5% CO2 and fluorescence was measured using excitation and emission wavelengths of 535 and 590 nm, respectively. Cell viability data were plotted using GraphPad Prism (GraphPad Software, Inc., San Diego, Calif.). In addition, a nonlinear regression model with a sigmoidal dose response and variable slope within GraphPad Prism was used to calculate the IC50 value of individual test compounds. Protocol B was the same as Protocol A except that cells were seeded at a count of 4000 cells per well/100 μl in a 96-well plate, and the incubation with test compound was for 48 hrs instead of 96 hrs.
# [3] = Protocol A: 3000 cells per well, 96 hrs incubation with test compound, read-out: Protocol A IC50 (μM), cell viability in IEC-6 cells
# [4] = Protocol B: 4000 cells per well, 48 hrs incubation with test compound, read-out: Protocol B IC50 (μM), cell viability in IEC-6 cells
Compound,IC50 (BRD4-1),IC50 (BRD4-2),IC50 [1],"IC50 [2, 3]","IC50 [2, 4]"
"CCNC(=O)c1cc2c(-c3cc(C(C)(C)O)ccc3Oc3c(C)cc(F)cc3C)cn(C)c(=O)c2s1 [Compound 1, N-ethyl-4-(2-(4-fluoro-2,6-dimethylphenoxy)-5-(2-hydroxypropan-2-yl)phenyl)-6-methyl-7-oxo-6,7-dihydrothieno[2,3-c]pyridine-2-carboxamide]",10100 nM,2 nM,0.131 µM,0.266 µM,4.91 µM
"CCNC(=O)c1cc2c(-c3cc(C(C)(C)O)ccc3Oc3ccc(Cl)cc3Cl)cn(C)c(=O)c2s1 [Compound 2, 4-(2-(2,4-dichlorophenoxy)-5-(2-hydroxypropan-2-yl)phenyl)-N-ethyl-6-methyl-7-oxo-6,7-dihydrothieno[2,3-c]pyridine-2-carboxamide]",,1 nM,0.111 µM,0.061 µM,
"CCNC(=O)c1cc2c(-c3cc(C(C)(C)O)ccc3Oc3ccc(F)cc3F)cn(C)c(=O)c2s1 [Compound 3, 4-(2-(2,4-difluorophenoxy)-5-(2-hydroxypropan-2-yl)phenyl)-N-ethyl-6-methyl-7-oxo-6,7-dihydrothieno[2,3-c]pyridine-2-carboxamide]",2050 nM,< 2 nM,0.074 µM,0.089 µM,
"CCS(=O)(=O)Nc1ccc(Oc2c(C)cccc2C)c(-c2cn(C)c(=O)c3sc(-c4nnc(C)o4)cc23)c1 [Compound 4, N-(4-(2,6-dimethylphenoxy)-3-(6-methyl-2-(5-methyl-1,3,4-oxadiazol-2-yl)-7-oxo-6,7-dihydrothieno[2,3-c]pyridin-4-yl)phenyl)ethanesulfonamide]",197 nM,6 nM,0.115 µM,0.048 µM,0.283 µM
"Cc1noc(-c2cc3c(-c4cc(C(C)(C)O)ccc4Oc4ccc(F)cc4F)cn(C)c(=O)c3s2)n1 [Compound 8, 4-(2-(2,4-difluorophenoxy)-5-(2-hydroxypropan-2-yl)phenyl)-6-methyl-2-(3-methyl-1,2,4-oxadiazol-5-yl)thieno[2,3-c]pyridin-7(6H)-one]",94 nM,74 nM,0.379 µM,0.156 µM,0.521 µM
"CCS(=O)(=O)Nc1ccc(Oc2c(C)cc(F)cc2C)c(-c2cn(C)c(=O)c3sc(-c4nnc(C)o4)cc23)c1 [Compound 10, N-(4-(4-fluoro-2,6-dimethylphenoxy)-3-(6-methyl-2-(5-methyl-1,3,4-oxadiazol-2-yl)-7-oxo-6,7-dihydrothieno[2,3-c]pyridin-4-yl)phenyl)ethanesulfonamide]",111 nM,3.4 nM,0.126 µM,,0.78 µM
"Cn1cc(-c2cc(C(C)(C)O)ccc2Oc2ccc(F)cc2F)c2cc(C(=O)N3CCC(F)(F)CC3)sc2c1=O [Compound 22, 4-(2-(2,4-difluorophenoxy)-5-(2-hydroxypropan-2-yl)phenyl)-2-(4,4-difluoropiperidine-1-carbonyl)-6-methylthieno[2,3-c]pyridin-7(6H)-one]",638 nM,11 nM,1.41 µM,,
"Cn1cc(-c2cc(C(C)(C)O)ccc2Oc2ccc(F)cc2F)c2cc(C(=O)N3CCC(F)(F)C3)sc2c1=O [Compound 76, 4-(2-(2,4-difluorophenoxy)-5-(2-hydroxypropan-2-yl)phenyl)-2-(3,3-difluoropyrrolidin-1-carbonyl)-6-methylthieno[2,3-c]pyridin-7(6H)-one]",265 nM,17 nM,0.879 µM,,
"C=C(C)c1ccc(Oc2c(C)cc(F)cc2C)c(-c2cn(C)c(=O)c3sc(C(=O)NCC)cc23)c1 [Compound 148, N-ethyl-4-(2-(4-fluoro-2,6-dimethylphenoxy)-5-(prop-1-en-2-yl)phenyl)-6-methyl-7-oxo-6,7-dihydrothieno[2,3-c]pyridine-2-carboxamide]",> 10000 nM,103 nM,1.28 µM,,
"Cc1cc(F)cc(C)c1Oc1ccc(C(C)(C)O)cc1-c1cn(C)c(=O)c2sc(C(=O)NCc3ccccc3)cc12 [Compound 149, N-benzyl-4-(2-(4-fluoro-2,6-dimethylphenoxy)-5-(2-hydroxypropan-2-yl)phenyl)-6-methyl-7-oxo-6,7-dihydrothieno[2,3-c]pyridine-2-carboxamide]",> 10000 nM,103 nM,1.5 µM,,
"CNC(=O)c1cc2c(-c3cc(C(C)(C)O)ccc3Oc3c(C)cc(F)cc3C)cn(C)c(=O)c2s1 [Compound 150, 4-(2-(4-fluoro-2,6-dimethylphenoxy)-5-(2-hydroxypropan-2-yl)phenyl)-N,6-dimethyl-7-oxo-6,7-dihydrothieno[2,3-c]pyridine-2-carboxamide]",3600 nM,1.2 nM,0.193 µM,,
"Cc1cc(F)cc(C)c1Oc1ccc(C(C)(C)O)cc1-c1cn(C)c(=O)c2sc(C(=O)Nc3ccccc3)cc12 [Compound 151, 4-(2-(4-fluoro-2,6-dimethylphenoxy)-5-(2-hydroxypropan-2-yl)phenyl)-6-methyl-7-oxo-N-phenyl-6,7-dihydrothieno[2,3-c]pyridine-2-carboxamide]",9380 nM,3.2 nM,0.282 µM,,
"Cc1nnc(-c2cc3c(-c4cc(C(C)(C)O)ccc4Oc4c(C)cc(F)cc4C)cn(C)c(=O)c3s2)[nH]1 [Compound 152, 4-(2-(4-fluoro-2,6-dimethylphenoxy)-5-(2-hydroxypropan-2-yl)phenyl)-6-methyl-2-(5-methyl-4H-1,2,4-triazol-3-yl)thieno[2,3-c]pyridin-7(6H)-one]",1490 nM,9 nM,0.536 µM,,
"Cc1cc(F)cc(C)c1Oc1ccc(C(C)(C)O)cc1-c1cn(C)c(=O)c2sc(-c3nc4ccccc4o3)cc12 [Compound 153, 2-(benzo[d]oxazol-2-yl)-4-(2-(4-fluoro-2,6-dimethylphenoxy)-5-(2-hydroxypropan-2-yl)phenyl)-6-methylthieno[2,3-c]pyridin-7(6H)-one]",> 10000 nM,526 nM,3.83 µM,,
"Cc1cc(F)cc(C)c1Oc1ccc(C(C)(C)O)cc1-c1cn(C)c(=O)c2sc(-c3nc4ccccc4[nH]3)cc12 [Compound 154, 2-(1H-benzo[d]imidazol-2-yl)-4-(2-(4-fluoro-2,6-dimethylphenoxy)-5-(2-hydroxypropan-2-yl)phenyl)-6-methylthieno[2,3-c]pyridin-7(6H)-one]",> 10000 nM,284 nM,2.89 µM,,
"CCS(=O)(=O)Nc1ccc(Oc2c(C)cc(F)cc2C)c(-c2cn(C)c(=O)c3sc(-c4nc5ccccc5[nH]4)cc23)c1 [Compound 157, N-(3-(2-(1H-benzo[d]imidazol-2-yl)-6-methyl-7-oxo-6,7-dihydrothieno[2,3-c]pyridin-4-yl)-4-(4-fluoro-2,6-dimethylphenoxy)phenyl)ethane sulfonamide]",> 10000 nM,145 nM,0.55 µM,,
"CCS(=O)(=O)Nc1ccc(Oc2ccc(F)cc2F)c(-c2cn(C)c(=O)c3sc(-c4nc5ccccc5o4)cc23)c1 [Compound 158, N-(3-(2-(benzo[d]oxazol-2-yl)-6-methyl-7-oxo-6,7-dihydrothieno[2,3-c]pyridin-4-yl)-4-(2,4-difluorophenoxy)phenyl)ethanesulfonamide]",103 nM,196 nM,0.56 µM,,
